Experimental data as given in article PMC9250534, “Synthesis and direct assay of large macrocycle diversities by combinatorial late-stage modification at picomole scale” (Nature Communications, 2022).

Molecular target: MDM2 (Homo sapiens, UniProt Q00987)
Assay: MDM2 binding screen of Libraries 3 and 4: displacement of fluorescent probe F-M8 at 750 nM macrocycle
Details: Panel b, Library 3: 63 scaffolds combinatorially acylated with 15 carboxylic acids at 30 picomole scale; displacement of fluorescent peptide probe; macrocycle 750 nM
Experimental: The cyclic peptide scaffolds required for Libraries 3 and 4 were synthesized as described for those used in Library 2. Due to the presence of many N-methylated amino acids which are more difficult to couple, 200 mM HOAt was applied together with HATU. The scaffolds were diluted to 2 mM in DMSO, and 15 nL were transferred using acoustic dispensing, followed by 15 nL DMSO containing carboxylic acids (40 mM, 20 equiv.), HBTU (40 mM) and DABCO (40 mM). After 6 h reaction at room temperature, 370 nL of DMSO was added to each well, followed by 5 μL of 100 mM Tris-Cl pH 7.4 containing 0.01% v/v Tween20, for quenching overnight.

MDM2, sequence (Q00987 whole entry): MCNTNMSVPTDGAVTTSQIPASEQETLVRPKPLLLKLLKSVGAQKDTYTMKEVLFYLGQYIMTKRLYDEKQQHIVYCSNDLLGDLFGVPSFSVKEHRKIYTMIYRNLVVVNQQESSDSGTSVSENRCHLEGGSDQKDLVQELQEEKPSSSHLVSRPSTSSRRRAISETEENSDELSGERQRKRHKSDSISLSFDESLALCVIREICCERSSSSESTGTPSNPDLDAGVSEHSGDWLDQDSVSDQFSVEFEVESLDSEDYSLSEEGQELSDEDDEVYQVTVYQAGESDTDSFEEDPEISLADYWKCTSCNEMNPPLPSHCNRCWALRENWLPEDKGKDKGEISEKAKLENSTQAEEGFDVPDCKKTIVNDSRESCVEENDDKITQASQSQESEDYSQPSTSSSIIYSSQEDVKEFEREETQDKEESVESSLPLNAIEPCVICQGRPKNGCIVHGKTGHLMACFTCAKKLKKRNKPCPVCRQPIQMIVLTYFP

Structure (SMILES) | fraction of fluorescent probe displaced
O=C(/C=C/c1ccc2ccccc2c1)NC[C@H]1NC(=O)C2(CC2)CNC(=O)CCSSCCNC(=O)[C@H](Cc2cccc3ccccc23)NC1=O [X-Amcp-D-Dap-1-NaI + Acid 112] | -0.00533
O=C(CCS(=O)(=O)c1ccccc1)NC[C@H]1NC(=O)C2(CC2)CNC(=O)CCSSCCNC(=O)[C@H](Cc2cccc3ccccc23)NC1=O [X-Amcp-D-Dap-1-NaI + Acid 114] | 0.028
O=C1CCSSCCNC(=O)[C@H](Cc2ccc3ccccc3c2)NC(=O)[C@@H](CNC(=O)c2ccc(Cl)s2)NC(=O)C2(CC2)CN1 [X-Amcp-D-Dap-2-Nal + Acid 14] | 0.00133
O=C1CCSSCCNC(=O)[C@H](Cc2ccc3ccccc3c2)NC(=O)[C@@H](CNC(=O)c2ccc(Cl)cc2)NC(=O)C2(CC2)CN1 [X-Amcp-D-Dap-2-Nal + Acid 25] | -0.019
O=C(/C=C/c1ccc(Cl)cc1)NC[C@H]1NC(=O)C2(CC2)CNC(=O)CCSSCCNC(=O)[C@H](Cc2ccc3ccccc3c2)NC1=O [X-Amcp-D-Dap-2-Nal + Acid 108] | 0.008
O=C1CCSSCCNC(=O)[C@H](Cc2ccc3ccccc3c2)NC(=O)[C@@H](CNC(=O)c2cccc(Oc3ccccc3)c2)NC(=O)C2(CC2)CN1 [X-Amcp-D-Dap-2-Nal + Acid 111] | -0.00533
O=C(CCS(=O)(=O)c1ccccc1)NC[C@H]1NC(=O)C2(CC2)CNC(=O)CCSSCCNC(=O)[C@H](Cc2ccc3ccccc3c2)NC1=O [X-Amcp-D-Dap-2-Nal + Acid 114] | -0.00533
O=C1CCSSCCNC(=O)[C@H](Cc2ccc3ccccc3c2)NC(=O)[C@@H](CNC(=O)C2COc3ccccc3O2)NC(=O)C2(CC2)CN1 (stereo partly drawn) [X-Amcp-D-Dap-2-Nal + Acid 115] | 0.015
O=C1CCSSCCNC(=O)[C@H](Cc2c[nH]c3cc(Cl)ccc23)NC(=O)[C@@H](CNC(=O)c2ccc(Cl)cc2)NC(=O)C2(CC2)CN1 [X-Amcp-D-Dap-Cl-Trp + Acid 25] | 0.021
O=C(/C=C/c1ccncc1)NC[C@H]1NC(=O)C2(CC2)CNC(=O)CCSSCCNC(=O)[C@H](Cc2c[nH]c3cc(Cl)ccc23)NC1=O [X-Amcp-D-Dap-Cl-Trp + Acid 106] | 0.018
O=C(/C=C/c1ccc(Cl)cc1)NC[C@H]1NC(=O)C2(CC2)CNC(=O)CCSSCCNC(=O)[C@H](Cc2c[nH]c3cc(Cl)ccc23)NC1=O [X-Amcp-D-Dap-Cl-Trp + Acid 108] | -0.025
O=C(/C=C/c1ccc(OCc2ccccc2)cc1)NC[C@H]1NC(=O)C2(CC2)CNC(=O)CCSSCCNC(=O)[C@H](Cc2c[nH]c3cc(Cl)ccc23)NC1=O [X-Amcp-D-Dap-Cl-Trp + Acid 110] | 0.008
O=C1CCSSCCNC(=O)[C@@H](Cc2c[nH]c3ccccc23)NC(=O)[C@@H](CNC(=O)c2ccc(Cl)cc2)NC(=O)C2(CC2)CN1 [X-Amcp-D-Dap-D-Trp + Acid 25] | 0.008
O=C1CCSSCCNC(=O)[C@@H](Cc2c[nH]c3ccccc23)NC(=O)[C@@H](CNC(=O)c2ccc3ccccc3c2)NC(=O)C2(CC2)CN1 [X-Amcp-D-Dap-D-Trp + Acid 107] | 0.031
Cn1cc(C[C@@H]2NC(=O)[C@@H](CNC(=O)c3ccc(Cl)cc3)NC(=O)C3(CC3)CNC(=O)CCSSCCNC2=O)c2ccccc21 [X-Amcp-D-Dap-Me-Trp + Acid 25] | -0.00533
Cn1cc(C[C@@H]2NC(=O)[C@@H](CNC(=O)/C=C/c3ccc4ccccc4c3)NC(=O)C3(CC3)CNC(=O)CCSSCCNC2=O)c2ccccc21 [X-Amcp-D-Dap-Me-Trp + Acid 112] | 0.00133
Cn1cc(C[C@@H]2NC(=O)[C@@H](CNC(=O)C3COc4ccccc4O3)NC(=O)C3(CC3)CNC(=O)CCSSCCNC2=O)c2ccccc21 (stereo partly drawn) [X-Amcp-D-Dap-Me-Trp + Acid 115] | 0.015

Now from value to compound:

fraction of fluorescent probe displaced | Structure (SMILES)
-0.00533 | CC(Oc1cccc(Cl)c1)C(=O)NC[C@H]1NC(=O)C2(CC2)CNC(=O)CCSSCCNC(=O)[C@H](Cc2cccc3ccccc23)NC1=O (stereo partly drawn) [X-Amcp-D-Dap-1-NaI + Acid 113]
0.015 | O=C1CCSSCCNC(=O)[C@H](Cc2cccc3ccccc23)NC(=O)[C@@H](CNC(=O)C2COc3ccccc3O2)NC(=O)C2(CC2)CN1 (stereo partly drawn) [X-Amcp-D-Dap-1-NaI + Acid 115]
-0.00844 | O=C1CCSSCCNC(=O)C(Cc2ccc3ccccc3c2)NC(=O)C(CNC(=O)C2CC2c2ccccc2)NC(=O)C2(CC2)CN1 [X-Amcp-D-Dap-2-Nal + Acid 105]
0.028 | O=C(/C=C/c1ccc(OCc2ccccc2)cc1)NC[C@H]1NC(=O)C2(CC2)CNC(=O)CCSSCCNC(=O)[C@H](Cc2ccc3ccccc3c2)NC1=O [X-Amcp-D-Dap-2-Nal + Acid 110]
0.008 | O=C1CCSSCCNC(=O)[C@H](Cc2c[nH]c3cc(Cl)ccc23)NC(=O)[C@@H](CNC(=O)c2ccc(Cl)s2)NC(=O)C2(CC2)CN1 [X-Amcp-D-Dap-Cl-Trp + Acid 14]
-0.00533 | O=C(/C=C/c1ccc2ccccc2c1)NC[C@H]1NC(=O)C2(CC2)CNC(=O)CCSSCCNC(=O)[C@H](Cc2c[nH]c3cc(Cl)ccc23)NC1=O [X-Amcp-D-Dap-Cl-Trp + Acid 112]
-0.00533 | O=C(CCS(=O)(=O)c1ccccc1)NC[C@H]1NC(=O)C2(CC2)CNC(=O)CCSSCCNC(=O)[C@H](Cc2c[nH]c3cc(Cl)ccc23)NC1=O [X-Amcp-D-Dap-Cl-Trp + Acid 114]
-0.00533 | O=C(/C=C/c1ccc(OCc2ccccc2)cc1)NC[C@H]1NC(=O)C2(CC2)CNC(=O)CCSSCCNC(=O)[C@@H](Cc2c[nH]c3ccccc23)NC1=O [X-Amcp-D-Dap-D-Trp + Acid 110]
-0.019 | O=C1CCSSCCNC(=O)[C@@H](Cc2c[nH]c3ccccc23)NC(=O)[C@@H](CNC(=O)c2cccc(Oc3ccccc3)c2)NC(=O)C2(CC2)CN1 [X-Amcp-D-Dap-D-Trp + Acid 111]
0.008 | O=C(CCS(=O)(=O)c1ccccc1)NC[C@H]1NC(=O)C2(CC2)CNC(=O)CCSSCCNC(=O)[C@@H](Cc2c[nH]c3ccccc23)NC1=O [X-Amcp-D-Dap-D-Trp + Acid 114]
-0.032 | Cn1cc(C[C@@H]2NC(=O)[C@@H](CNC(=O)c3ccc(Cl)s3)NC(=O)C3(CC3)CNC(=O)CCSSCCNC2=O)c2ccccc21 [X-Amcp-D-Dap-Me-Trp + Acid 14]
-0.002 | Cn1cc(CC2NC(=O)C(CNC(=O)C3CC3c3ccccc3)NC(=O)C3(CC3)CNC(=O)CCSSCCNC2=O)c2ccccc21 [X-Amcp-D-Dap-Me-Trp + Acid 105]
0.018 | Cn1cc(C[C@@H]2NC(=O)[C@@H](CNC(=O)c3ccc4ccccc4c3)NC(=O)C3(CC3)CNC(=O)CCSSCCNC2=O)c2ccccc21 [X-Amcp-D-Dap-Me-Trp + Acid 107]
0.008 | Cn1cc(C[C@@H]2NC(=O)[C@@H](CNC(=O)/C=C/c3ccc(Cl)cc3)NC(=O)C3(CC3)CNC(=O)CCSSCCNC2=O)c2ccccc21 [X-Amcp-D-Dap-Me-Trp + Acid 108]
0.015 | Cn1cc(C[C@@H]2NC(=O)[C@@H](CNC(=O)CCS(=O)(=O)c3ccccc3)NC(=O)C3(CC3)CNC(=O)CCSSCCNC2=O)c2ccccc21 [X-Amcp-D-Dap-Me-Trp + Acid 114]
